“And” between values parts separate entries of the source, which are not always exact repeats. Equal values may be shown once. Read-outs that look alike come from different tables or passages of the source.
Experiments:
[1] = Plasma pharmacokinetics after oral dosing; format: in vivo, CD-1 mice; details: mouse, 100 mg/kg oral, CD-1 male mice
Procedure: Pharmacokinetic studies were carried out by DMPK at WuXi AppTec, Inc. (Cranbury, NJ, USA). The pharmacokinetics of RGN3067 were evaluated in three male CD-1 mice. RGN3067 formulated as a 10 mg/mL solution (20% DMSO, 80% PEG400: PVP 95:5) was administered by oral gavage at a dose of 100 mg/kg. Plasma samples were drawn at 0.5, 1, 2, 4, 6, 10 and 24 h. Samples were analyzed by LC-MS/MS. A calibration curve was established using Waters ACQUITY UPLC BEH C18 column and formic acid in water and formic acid in acetonitrile as mobile phase. Tolbutamide and labetalol were used as internal standards for LC-MS/MS analysis. Compound was detected using electrospray ionization (ESI) positive detection. Pharmacokinetic parameters were calculated using the PO-noncompartmental linear model in Phoenix WinNonlin software v8.3 (Certara, Princeton, NJ, USA).

[2] = Maximum tolerated dose study; format: in vivo; details: 25, 50, 100 or 200 mg/kg oral twice daily for 5 days + 5 days observation
Procedure: ; 6 mice per group, including vehicle control). One mouse from each group was euthanized for PK analysis at 6 h post-initial dose. The weight and physical states of the animals were monitored during the 5 days of treatment and for 5 days following drug administration. […]

[3] = Brain pharmacokinetics after oral dosing; format: in vivo; details: 100 mg/kg oral, CD-1 mice, 1, 4 and 8 h
Procedure: Brain pharmacokinetic studies were carried out by DMPK at WuXi AppTec, Inc. (Cranbury, NJ, USA). The brain penetrance of RGN3067 was evaluated in three male CD-1 mice. RGN3067 was formulated as a 10 mg/mL solution (20% DMSO, 80% PEG400: PVP 95:5) and administered by oral gavage at a dose of 100 mg/kg. Plasma and brain samples were collected at 1, 4, and 8 h. Samples were analyzed by LC-MS/MS. A calibration curve was established using Waters ACQUITY UPLC BEH C18 column and formic acid in water and formic acid in acetonitrile as mobile phase. Tolbutamide and labetalol were used as internal standards for LC-MS/MS analysis. Compound was detected using electrospray ionization (ESI) positive detection. Pharmacokinetic parameters were calculated using the PO-noncompartmental linear model in Phoenix WinNonlin software v8.3 (Certara, Princeton, NJ, USA).

[4] = test system: U87 glioblastoma cells; experiment: Cell cycle analysis (propidium iodide flow cytometry); format: cell-based, human; details: U87, 5 µM, 48 h
Procedure: […] Cells were washed in ice-cold PBS, resuspended in 1 mL of ice-cold 70% ethanol, and fixed overnight at −20 °C. Cells were centrifuged and resuspended in PBS containing RNAse A at a final concentration of 0.5 mg/mL (MilliporeSigma 10109142001; Burlington, MA, USA) and propidium iodide at a final concentration of 0.04 mg/mL (Sigma-Aldrich P4170, St. Louis, MO, USA) for 1 h at 37 °C. Nuclear staining was analyzed using a BD FACSCanto II flow cytometer (BD Biosciences; Franklin Lakes, NJ, USA) to determine cell cycle distribution. Cell cycle analysis was performed using the BD FACSDiva software v8.0.

[5] = test system: colchicine binding pocket of β-tubulin in MCF-7 cells; experiment: EBI competition colchicine-binding site cellular assay; format: cell-based, human; details: MCF-7, compound 50 µM
Procedure: (C) EBI competition assay in MCF-7 breast cancer cells. […] Total proteins were lysed and subjected to Western blot analysis for β-tubulin. […] GAPDH was employed as the loading control. (D) Quantification of the Western blot in (C). […] Data are plotted as mean ± SD from at least three independent experiments. Analysis between groups in (B) was performed using a one-way ANOVA with Tukey’s multiple comparison test.

[6] = test system: MDR1 (P-gp); experiment: MDR1-MDCK cellular permeability; format: in vitro ADME, canine; details: dog
Procedure: Cellular permeability was tested using the MDR1-MDCK (multidrug-resistant-1, Madin–Darby canine kidney) cell line. Donor solution was added to a 96-well plate (2 μL, 2 mM compound; 6 μL DMSO in 1992 μL of Hanks’ balanced salt solution [HBSS] buffer) and shaken at 1000 rpm for 10 min (final 0.4% DMSO). Transepithelial electrical resistance (TEER) values were used as a quality control check for monolayer integrity. At 3–5 days post-seeding, each MDCK II cell monolayer was tested to ensure the TEER value was ≥ 83 Ω⋅cm^2. The compound donor working solution was centrifuged (4000 rpm for 5 min) to remove any precipitated compound prior to loading donor chambers. Apical and basolateral plates were warmed at 37 °C for about 5 min prior to the initiation of transport (37 °C, 90 min).
Luciferin marker Lucifer Yellow (150 μL, 50 μM Lucifer Yellow in HBSS, pH 7.4) was added to the apical compartment, and transfer buffer (600 μL) was added to the receiver plate (basolateral compartment) and incubated at 37 °C for 60 min. Apical Lucifer Yellow concentrations for LYT0 and LYT60 were measured by a fluorometer (EX 485/EM 535 nm). Donor and receiver samples were analyzed by LC-MS. Metoprolol, enalapril, and quinidine were used as positive controls. The efflux ratio was calculated as the ratio of apparent permeability (basal-to-apical) and apparent permeability (apical-to-basal).

[7] = test system: GBM12 patient-derived xenograft; experiment: Subcutaneous GBM12 PDX efficacy model; format: in vivo, athymic nude female mice; details: 100 mg/kg oral BID, 5 days on/2 days off, four cycles
Procedure: Animal protocols were approved by the Animal Care and Use Committee (ACUC) of the institutes and CRO labs. All studies were performed in compliance with the guidelines. GBM12 cells (5 × 10^6) were injected subcutaneously into athymic nude female mice aged 4–6 weeks. Subcutaneous (SC) tumor size was measured using an external caliper. The greatest longitudinal diameter (length) and the greatest transverse diameter (width) were determined while mice were scruffed and conscious. Tumor volume was calculated by the modified ellipsoidal formula: V = ½ (Length × Width^2). RGN3067 solution was prepared for each mouse. RGN3067 (9.91 mg) was dissolved in DMSO (17 µL) by vortexing for 30–60 s. Approximately 69 μL of PEG400: PVP (95:5, Sigma-Aldrich; St. Louis, MO, USA) solution was added and vortexed.
After tumors reached 100–150 mm^3, mice were dosed with RGN3067 solution (43 µL, 100 mg/kg) or vehicle control twice daily by oral gavage (total dose was 200 mg/kg). Mice were dosed using cycles of 5 days on/2 days off, for a total of four cycles. Mice were euthanized once the tumor reached 2000 mm^3.

[8] = test system: U87 cells; experiment: Reversibility (washout) cell viability assay; format: cell-based; details: Homo sapiens, U-87 MG

## CO[C@H]1C[C@@H](C(=O)NC(=O)Nc2ccc(Oc3ccc(Cl)cn3)c(C)c2)C1 [RGN3067]
[1]
  AUC: 51200 ng·h/mL
  Cmax: 7810 ng/mL and 20 µM
  Tmax: 2 h
  half-life: 3.61 ± 1.94 h
[2]
  body weight loss: no statistically significant weight loss was observed
[3]
  distribution in plasma and brain: equal distribution in plasma and brain at all time points
[4]
  cells arrested at G2/M: 73%
[5]
  formation of the EBI–β-tubulin adduct: reduces the formation of the EBI–β-tubulin adduct
[6]; Papp basal-to-apical / apical-to-basal
  efflux ratio at 90 min, 2 µM: 0.61
[6]; read-out: apparent permeability coefficient
  Papp at 90 min, 2 µM: 22.7 ×10⁻⁶ cm/s
[7]
  behavior, appearance and weight loss: No changes in behavior or appearance (hair and skin) or statistically significant weight loss was observed
[7]; from day 14 to end of study
  inhibition of tumor growth (tumor volume): statistically significant inhibition of tumor growth
[8]; U87, compound left in medium, 72 h, read-out: IC50 cell viability, no-washout
  IC50: 571 nM
[8]; U87, compound washed out after 6 h, then 72 h, read-out: IC50 cell viability, after washout
  IC50: > 10000 nM
